# Source: patent publication US5763453A, “Condensed indan derivatives and salts thereof” (Taiho Pharmaceutical Co., Ltd., priority 1995, dated 1998)
# Counter-ions that a name gives are not always drawn.
# Tested on: P 388 mouse leukemia cell line
# Assay: Cytocidal effect on P 388 mouse leukemia cells (crystal violet cytometry, three days' incubation)
# Assay type: cell-based
# Details: P388, 72 h, 2×10^3 cells/well, read-out: IC50 (concentration at which the cell count is 50% less than that of the control)
# Experimental: Cytocidal Effect A 96-well plate was innoculated with 2×10^3 cells/well of P 388 mouse leukemia cell line. The compound of the present invention was dissoved in purified water or dimethylsulfoxide, and the solution was diluted with medium to various concentrations and placed into respective wells and incubated. After three day's incubation, the plate was fixed with glutaraldehyde and stained with crystal violet for cytometry.
row,Structure (SMILES),IC50
1,CN(C)CCNc1c2c(nc3ccc(O)cc13)-c1ccccc1C2=O [Compound 12],0.16 µg/mL
2,"CN(C)CCNc1c2c(nc3ccccc13)-c1ccc(O)cc1C2=O.Cl.Cl [Compound 2, 10-(((dimethylamino)ethyl)amino)-2-hydroxy-11H-indeno[1,2-b]quinolin-11-one dihydrochloride]",0.15 µg/mL
3,"COc1ccc2c(c1)C(=O)c1c-2nc2ccccc2c1NCCN(C)C.Cl.Cl [Compound 1, 10-(((dimethylamino)ethyl)amino)-2-methoxy-11H-indeno[1,2-b]quinolin-11-one dihydrochloride]",0.34 µg/mL
4,COc1ccc2c(NCCN(C)C)c3c(nc2c1)-c1ccccc1C3=O [Compound 4],0.25 µg/mL
5,O=C1c2ccccc2-c2nc3ccc(O)cc3c(N3CCC(N4CCCCC4)CC3)c21 [Compound 16-a],0.43 µg/mL
6,COc1ccc2nc3c(c(N4CCN(C)CC4)c2c1)C(=O)c1ccccc1-3 [Compound 13],0.37 µg/mL
7,CCN(CC)CCSc1c2c(nc3ccc(O)cc13)-c1ccccc1C2=O [Compound 10-a],0.42 µg/mL
8,"CCN(CC)CCOc1c2c(nc3ccc(O)cc13)-c1ccccc1C2=O [Compound 11, 10-(((diethylamino)ethoxy)-8-hydroxy-11H-indeno[1,2-b]quinolin-11-one hydrochloride]",0.096 µg/mL
9,CN(C)CCCNc1c2c(nc3cc(O)ccc13)-c1ccccc1C2=O [Compound 7-a],0.16 µg/mL
10,CN(C)CCNc1c2c(nc3ccccc13)-c1cc(O)ccc1C2=O [Compound 3-a],0.15 µg/mL
11,CN(C)CCNc1c2c(nc3cc(O)ccc13)-c1ccccc1C2=O [Compound 5],0.052 µg/mL
12,CN1CCN(c2c3c(nc4ccc(O)cc24)-c2ccccc2C3=O)CC1 [Compound 14],0.22 µg/mL
